Experimental data: patent US11478451B1, “Macrocyclic chlorine substituted indole derivatives” (Bayer Aktiengesellschaft, priority 2017, dated 2022)
Counter-ions that a name gives are not always drawn. Like-named read-outs stand apart in the source and are kept apart here.

Key:
[1] = tested on: AMO-1 cells; assay: Antiproliferation assay (CellTiter-Glo, 72 h), AMO-1; assay type: cell-based; conditions: IC50, median, AMO-1, 72 h, read-out: Antiproli AMO-1 [M] median
Method: Assessment of the Anti-Proliferative Effect of Compounds in Different Cell Lines
The impact of compounds on the proliferation of different cell lines was assessed using the CellTiter-Glo® Luminescent Cell Viability reagent from Promega (G7573).
In parallel, cells were plated in a reference (day 0) plate for time zero determination.
Rim wells were excluded. The cells were incubated for 72 h hours in a humidified incubator at 37° C. The day 0 plate was measured by adding 30 μL/well of CTG solution (CellTiter-Glo® Luminescent Cell Viability reagent, Promega G7573) to time zero wells in the reference plate followed by a 10 minutes incubation and luminescence reading at 0.1 ms. using the PHERAstar FS microplate reader (BMG Labtech).
After 72 h incubation, the treated plates were measured in the same way as the day 0 plate mentioned above.

[2] = tested on: SUDHL5 cells; assay: Induction of caspase-3/7 activity (Caspase-Glo 3/7), SUDHL5; assay type: cell-based; conditions: EC50, median, SUDHL5, 3 h treatment
Method: (§1) Induction of Caspase-3/7 Activity Upon Treatment of Cells with Selected Compounds
(§2) The BH3-domain of MCL-1 sequesters pro-apoptotic proteins, thereby inhibiting apoptosis. In contrast, MCL-1 inhibitors are expected to antagonize this effect leading to an increase in apoptosis, which can be determined by measuring the activity of caspase-3/7.
(§3) The activity of caspase-3/7 was determined in DLBCL (Diffuse large B-cell lymphoma) cell lines (SUDHL5 and SUDHL10) upon treatment with different compounds, using the Caspase-Glo® 3/7 reagent from Promega (G8092).
(§4) Rim wells were excluded. The cells were incubated for 3 h hours in a humidified incubator at 37° C.
(§5) For the evaluation of the results, the background measured with “medium-only” was subtracted from all other values.

[3] = tested on: SUDHL10 cells; assay: Induction of cytotoxicity (CellTiter-Glo, 5 h), SUDHL10; conditions: read-out: Cytotox SUDHL10 [M] (median); IC50, median; SUDHL10, 5 h
[4] = tested on: SUDHL10 cells; assay: Induction of caspase-3/7 activity (Caspase-Glo 3/7), SUDHL10; assay type: cell-based; conditions: EC50, median; SUDHL10, 3 h treatment
Method: as §1, §2, §3, §4, §5

[5] = tested on: SUDHL5 cells; assay: Induction of cytotoxicity (CellTiter-Glo, 5 h), SUDHL5; conditions: SUDHL5, 5 h
[6] = read-out: Cytotox SUDHL5 [M] (median), IC50, median
[7] = Homo sapiens, SU-DHL-5, 5 h, read-out: Cytotox SUDHL5 [M] (median), IC50, median

Work on `CCc1c2c(nn1C)COCCCCn1c(C(=O)O)c(CCCOc3cccc4cc(F)ccc34)c3ccc(Cl)c-2c31` (racemic) [Example 36, (rac)-4-chloro-3-ethyl-7-{3-[(6-fluoronaphthalen-1-yl)oxy]propyl}-2-methyl-2,10,11,12,13,15-hexahydropyrazolo[4′,3′:9,10][1,6]oxazacycloundecino[8,7,6-hi]indole-8-carboxylic acid] yielded an IC50 ([1]; Homo sapiens, AMO1, 72 h) of 2.9e-07 M.

`Cc1c2c(nn1C)COCC1CCC1Cn1c(C(=O)O)c(CCCOc3cccc4ccccc34)c3ccc(Cl)c-2c31` (single isomer, unassigned; stereoisomer 1) [Example 63] showed an EC50 [2] of 9 µM.

Work on `CCc1c2c(nn1C)COCC(O)CCn1c(C(=O)O)c(CCCOc3cccc4cc(F)ccc34)c3ccc(Cl)c-2c31` (stereo not shown) [Example 102, 4-chloro-3-ethyl-7-{3-[(6-fluoronaphthalen-1-yl)oxy]propyl}-12-hydroxy-2-methyl-2,10,11,12,13,15-hexahydropyrazolo[4′,3′:9,10][1,6]oxazacycloundecino[8,7,6-hi]indole-8-carboxylic acid-N-ethylethanamine salt] yielded an IC50 [3] of 8.2e-06 M, an EC50 [4] of 7.8 µM and an IC50 [5, 6] of 8.4e-06 M.

`CCc1c2c(nn1C)COCCCCn1c(C(=O)O)c(CCCOc3cccc4cc(F)ccc34)c3ccc(Cl)c-2c31` (single isomer, unassigned; enantiomer 2) [Example 38, (−)-4-chloro-3-ethyl-7-{3-[(6-fluoronaphthalen-1-yl)oxy]propyl}-2-methyl-2,10,11,12,13,15-hexahydropyrazolo[4′,3′:9,10][1,6]oxazacycloundecino[8,7,6-hi]indole-8-carboxylic acid-N-ethylethanamine salt (Enantiomer 2)] gave an EC50 ([2]; Homo sapiens, SU-DHL-5, 3 h) of 5.4 µM.

In the case of `CCc1nn(CCN2CCOCC2)c2c1-c1c(Cl)ccc3c(CCCOc4cccc5ccccc45)c(C(=O)O)n(c13)CCCCN(C)C2` (single isomer, unassigned; enantiomer 1) [Example 46, 4-chloro-3-ethyl-14-methyl-1-[2-(morpholin-4-yl)ethyl]-7-{3-[(naphthalen-1-yl)oxy]propyl}-10,11,12,13,14,15-hexahydro-1H-pyrazolo[3′,4′:8,9][1,6]diazacycloundecino[10,11,1-hi]indole-8-carboxylic acid (Enantiomer 1)], the IC50 [5, 6] is reported as 4e-07 M and the IC50 ([1]; Homo sapiens, AMO1, 72 h) is reported as 5.9e-07 M.

For `Cc1c2c(nn1C)COCC(F)(F)CCn1c(C(=O)O)c(CCCOc3cccc4ccccc34)c3ccc(Cl)c-2c31` (single isomer, unassigned; enantiomer 2) [Example 57, 4-chloro-12,12-difluoro-2,3-dimethyl-7-{3-[(naphthalen-1-yl)oxy]propyl}-2,10,11,12,13,15-hexahydropyrazolo[4′,3′:9,10][1,6]oxazacycloundecino[8,7,6-hi]indole-8-carboxylic acid-N-ethylethanamine salt—Enantiomer 2], the EC50 [4] was 8 µM, the IC50 [5, 6] was 4.9e-06 M and the EC50 [2] was 3.2 µM. It also gave an IC50 [1] of 7.6e-06 M.

With `CCc1c2c(nn1C)CCCCCCn1c(C(=O)O)c(CCCOc3cccc4ccccc34)c3ccc(Cl)c-2c31` (single isomer, unassigned; enantiomer 1) [Example 52, (+)-4-chloro-3-ethyl-2-methyl-7-{3-[(naphthalen-1-yl)oxy]propyl}-10,11,12,13,14,15-hexahydro-2H-pyrazolo[4′,3′:4,5]azacycloundecino[3,2,1-hi]indole-8-carboxylic acid-N-ethylethanamine salt—Enantiomer 1] the IC50 [3] was 2e-06 M, the EC50 ([2]; Homo sapiens, SU-DHL-5, 3 h) was 0.8 µM and the IC50 ([1]; Homo sapiens, AMO1, 72 h) was 2.2e-06 M.

In the case of `Cc1c2c(nn1C)COCCCCn1c(C(=O)O)c(CCCOc3cccc4cc(F)ccc34)c3ccc(Cl)c-2c31` (racemic) [Example 14, (rac)-4-chloro-7-{3-[(6-fluoronaphthalen-1-yl)oxy]propyl}-2,3-dimethyl-2,10,11,12,13,15-hexahydropyrazolo[4′,3′:9,10][1,6]oxazacycloundecino[8,7,6-hi]indole-8-carboxylic acid], the IC50 ([1]; Homo sapiens, AMO1, 72 h) is reported as 7.4e-07 M.

`CCc1c2c(nn1C)CN(C)CCCCn1c(C(=O)O)c(CCCOc3cccc4cc(F)ccc34)c3ccc(Cl)c-2c31` (racemic) [Example 5, (rac)-4-chloro-3-ethyl-7-{3-[(6-fluoronaphthalen-1-yl)oxy]propyl}-2,14-dimethyl-10,11,12,13,14,15-hexahydro-2H-pyrazolo[3′,4′:8,9][1,6]diazacycloundecino[10,11,1-hi]indole-8-carboxylic acid] showed an IC50 ([1]; Homo sapiens, AMO1, 72 h) of 6.1e-07 M.

With `CCc1nn(CCN2CCOCC2)c2c1-c1c(Cl)ccc3c(CCCOc4cccc5ccccc45)c(C(=O)O)n(c13)C/C=C\CN(C)C2` (single isomer, unassigned; enantiomer 1) [Example 43, (11Z)-4-chloro-3-ethyl-14-methyl-1-[2-(morpholin-4-yl)ethyl]-7-{3-[(naphthalen-1-yl)oxy]propyl}-10,13,14,15-tetrahydro-1H-pyrazolo[3′,4′:8,9][1,6]diazacycloundecino[10,11,1-hi]indole-8-carboxylic acid-ammonia salt (Enantiomer 1)] the IC50 [5, 7] was 6e-07 M.

Compound `CCc1c2c(nn1C)CN(C)CCCCn1c(C(=O)O)c(CCCOc3cccc4ccccc34)c3ccc(Cl)c-2c31` (racemic) [Example 22, (rac)-4-chloro-3-ethyl-2,14-dimethyl-7-[3-(naphthalen-1-yloxy)propyl]-10,11,12,13,14,15-hexa-hydro-2H-pyrazolo[3′,4′:8,9][1,6]diazacycloundecino[10,11,1-hi]indole-8-carboxylic acid] has an IC50 ([1]; Homo sapiens, AMO1, 72 h) of 6.6e-07 M.

`Cc1c2c(nn1C)COCC(F)(F)CCn1c(C(=O)O)c(CCCOc3cccc4cc(F)ccc34)c3ccc(Cl)c-2c31` (racemic) [Example 90, (rac)-4-Chloro-12,12-difluoro-7-{3-[(6-fluoronaphthalen-1-yl)oxy]propyl}-2,3-dimethyl-2,10,11,12,13,15-hexahydropyrazolo[4′,3′:9,10][1,6]oxazacycloundecino[8,7,6-hi]indole-8-carboxylic acid] showed an IC50 [5, 7] of 9.9e-06 M, an EC50 ([2]; Homo sapiens, SU-DHL-5, 3 h) of 8.5 µM and an IC50 ([1]; Homo sapiens, AMO1, 72 h) of 4.9e-06 M.

With `CCc1c2c(nn1C)CN(C)CCCCn1c(C(=O)O)c(CCCOc3cccc4ccccc34)c3ccc(Cl)c-2c31` (single isomer, unassigned; enantiomer 2) [Example 24, 4-chloro-3-ethyl-2,14-dimethyl-7-[3-(naphthalen-1-yloxy)propyl]-10,11,12,13,14,15-hexahydro-2H-pyrazolo[3′,4′:8,9][1,6]diazacycloundecino[10,11,1-hi]indole-8-carboxylic acid (Enantiomer 2)] the EC50 ([2]; Homo sapiens, SU-DHL-5, 3 h) was 4.5 µM.

Compound `Cc1nn(C)c2c1-c1c(Cl)ccc3c(CCCOc4cccc5ccccc45)c(C(=O)O)n(c13)CCCCOC2` (racemic) [Example 2, rac-4-chloro-1,3-dimethyl-7-[3-(naphthalen-1-yloxy)propyl]-1,10,11,12,13,15-hexahydropyrazolo[4′,3′:9,10][1,6]oxazacycloundecino[8,7,6-hi]indole-8-carboxylic acid] has an IC50 ([1]; Homo sapiens, AMO1, 72 h) of 4.9e-06 M.

`CCc1c2c(nn1C)CN(CCOC)CCCCn1c(C(=O)O)c(CCCOc3cccc4cc(F)ccc34)c3ccc(Cl)c-2c31` (single isomer, unassigned; enantiomer 1) [Example 132, 4-chloro-3-ethyl-7-{3-[(6-fluoronaphthalen-1-yl)oxy]propyl}-14-(2-methoxyethyl)-2-methyl-10,11,12,13,14,15-hexahydro-2H-pyrazolo[3′,4′:8,9][1,6]diazacycloundecino[10,11,1-hi]indole-8-carboxylic acid (Enantiomer 1)] was tested, and the IC50 [5, 7] was 8.2e-06 M and the EC50 ([2]; Homo sapiens, SU-DHL-5, 3 h) was 9.3 µM.

Compound `CCc1c2c(nn1C)CN(C)CCCCn1c(C(=O)O)c(CCCOc3cccc4cc(F)ccc34)c3ccc(Cl)c-2c31` (single isomer, unassigned; enantiomer 2) [Example 7, 4-chloro-3-ethyl-7-{3-[(6-fluoronaphthalen-1-yl)oxy]propyl}-2,14-dimethyl-10,11,12,13,14,15-hexahydro-2H-pyrazolo[3′,4′:8,9][1,6]diazacycloundecino[10,11,1-hi]indole-8-carboxylic acid (Enantiomer 2)] has an IC50 [3] of 9.3e-06 M, an IC50 [5, 6] of 6.1e-06 M and an EC50 ([2]; Homo sapiens, SU-DHL-5, 3 h) of 8 µM. It also gave an IC50 [1] of 6.6e-06 M.

With `CCc1c2c(nn1C)CCCCCCn1c(C(=O)O)c(CCCOc3cccc4cc(F)ccc34)c3ccc(Cl)c-2c31` (racemic) [Example 54, (rac)-4-chloro-3-ethyl-7-{3-[(6-fluoronaphthalen-1-yl)oxy]propyl}-2-methyl-10,11,12,13,14,15-hexahydro-2H-pyrazolo[4′,3′:4,5]azacycloundecino[3,2,1-hi]indole-8-carboxylic acid] the EC50 ([2]; Homo sapiens, SU-DHL-5, 3 h) was 3.5 µM.
